This is an account of results in patent US4877881A, “Process of preparing pyrazoles, isoxazoles and analogs thereof having activity as 5-lipoxygenase inhibitors” (Warner-Lambert Company, priority 1988, dated 1989).

Each structure is given as a SMILES string.

In general, IC50 refers to the concentration that inhibits the measured activity by half.

In test [1] the target is T1, 5-lipoxygenase (Rattus norvegicus, UniProt P12527).
T1 construct: ARBL/ARBC Whole Cell 5-Lipoxygenase and Cyclooxygenase Assays; endogenous in cells; host or cells: RBL-1 rat basophilic leukemia cells (American Type Culture Collection)
T1 sequence (P12527 1-673): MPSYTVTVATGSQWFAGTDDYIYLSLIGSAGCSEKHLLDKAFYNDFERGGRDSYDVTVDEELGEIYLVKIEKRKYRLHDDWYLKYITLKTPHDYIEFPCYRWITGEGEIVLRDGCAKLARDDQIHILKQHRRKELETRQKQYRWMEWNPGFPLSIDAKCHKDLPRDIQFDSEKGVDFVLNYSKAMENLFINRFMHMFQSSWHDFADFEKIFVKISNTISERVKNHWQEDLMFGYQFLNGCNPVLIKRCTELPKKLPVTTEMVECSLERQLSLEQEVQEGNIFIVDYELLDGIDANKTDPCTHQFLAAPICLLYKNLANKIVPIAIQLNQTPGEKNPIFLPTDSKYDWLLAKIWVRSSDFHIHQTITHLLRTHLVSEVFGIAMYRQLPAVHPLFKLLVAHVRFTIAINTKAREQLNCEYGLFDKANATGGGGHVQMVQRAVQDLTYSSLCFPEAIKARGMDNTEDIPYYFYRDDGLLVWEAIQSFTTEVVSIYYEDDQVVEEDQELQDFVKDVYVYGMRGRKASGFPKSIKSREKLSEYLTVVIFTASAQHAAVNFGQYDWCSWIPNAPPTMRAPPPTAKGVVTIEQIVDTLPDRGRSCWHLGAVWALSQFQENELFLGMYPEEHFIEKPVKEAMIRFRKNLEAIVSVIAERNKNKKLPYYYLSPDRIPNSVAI
Description: ARBL Whole Cell 5-Lipoxygenase Assay in RBL-1 cells (LTB4 RIA). It counts as cell-based. The conditions noted are these: RBL-1 intact cell 5-lipoxygenase; A23187 5 μM. On the procedure: (§1) ARBL/ARBC Whole Cell 5-Lipoxygenase and Cyclooxygenase Assays
(§2) The rat basophilic leukemia cell line (RBL-1) was obtained from the American Type Culture Collection (Rockville, Md.).
(§3) Radioimmuno assay (RIA) kits of LTB4 and PGF2α were obtained from Amersham (Arlington Heights, Ill.) and Seragen (Boston, Mass.) respectively.
(§4) All tissue culture media were obtained from GIBO (Gran Island, N.Y.).
(§5) RBL-1 cells were grown in culture (suspension) in Eagle's minimum essential medium supplemented with 12% fetal bovine serum and 1:100 antibiotic-antimycotic mixture at 37° C. in an incubator supplied with air-5% carbon dioxide. Cells were harvested by centrifugation. They were washed with cold phosphate buffered saline pH 7.4 (PBS; NaCl, 7.1 g; Na2 HOP4, 1.15 g; KH2 PO4, 0.2 g; and KCl, 0.2 g/L). […] Calcium ionophore A23187 (5 μM) was added and cells were incubated for seven minutes at 37° C. The reaction was stopped by chilling the tubes in ice for ten minutes. Cells were separated by centrifugation and the supernatant was stored at -20°. Aliquots (100 μl) were analyzed for LTB4 and PGF2α using radioimmuno assay kits as provided by the supplier.

For test [2], the target named is T2, cyclooxygenase (Bos taurus, UniProt O62664).
T2 construct: The assay consists of incubating 2 mg bovine seminal vesicle powder; from tissue; host or cells: bovine seminal vesicle powder
T2 sequence (O62664 25-600): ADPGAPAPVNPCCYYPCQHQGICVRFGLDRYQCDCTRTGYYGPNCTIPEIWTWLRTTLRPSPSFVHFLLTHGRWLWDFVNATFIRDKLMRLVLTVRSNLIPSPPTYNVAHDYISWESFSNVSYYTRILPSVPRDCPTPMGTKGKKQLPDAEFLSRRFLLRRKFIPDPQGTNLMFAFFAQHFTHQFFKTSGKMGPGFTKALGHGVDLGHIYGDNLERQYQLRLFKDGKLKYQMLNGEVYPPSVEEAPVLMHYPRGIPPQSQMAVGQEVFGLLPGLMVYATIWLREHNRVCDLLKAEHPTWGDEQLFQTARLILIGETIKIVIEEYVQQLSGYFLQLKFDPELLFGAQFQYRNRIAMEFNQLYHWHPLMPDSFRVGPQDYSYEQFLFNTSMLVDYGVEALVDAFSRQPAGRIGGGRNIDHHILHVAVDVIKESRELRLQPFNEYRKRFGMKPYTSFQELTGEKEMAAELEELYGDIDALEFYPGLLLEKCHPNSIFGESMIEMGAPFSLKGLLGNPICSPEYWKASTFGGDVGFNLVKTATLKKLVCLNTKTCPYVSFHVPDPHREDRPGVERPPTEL
The experiment in a line: Cyclooxygenase Enzyme Assay, bovine seminal vesicle (BSV), PGE2 formation. It is filed as biochemical. The conditions noted are these: bovine seminal vesicle powder; 100 μM arachidonic acid, 20 minutes. How it is done: Cyclooxygenase Enzyme Assay
Additionally, inhibition of cyclooxygenase is considered a measure of relevance to the pathophysiology of the above noted diseases.
The assay consists of incubating 2 mg bovine seminal vesicle powder with 2 mM epinephrine, 2.5 mM reduced glutathione, 100 μM arachidonic acid, and the test agent for 20 minutes. The reaction mixture is acidified and extracted with ethyl acetate (3×1.0 ml) and the pooled extract is evaporated to dryness using a Speed Vac Concentrator or under a stream of nitrogen. The residue was dissolved in ethanol.

In test [3] the target is T3, cyclooxygenase (Rattus norvegicus, UniProt Q63921).
T3 construct: RBL-1 intact cell cyclooxygenase IC50 values; endogenous in cells; host or cells: RBL-1 rat basophilic leukemia cells (American Type Culture Collection)
T3 sequence (Q63921 27-602): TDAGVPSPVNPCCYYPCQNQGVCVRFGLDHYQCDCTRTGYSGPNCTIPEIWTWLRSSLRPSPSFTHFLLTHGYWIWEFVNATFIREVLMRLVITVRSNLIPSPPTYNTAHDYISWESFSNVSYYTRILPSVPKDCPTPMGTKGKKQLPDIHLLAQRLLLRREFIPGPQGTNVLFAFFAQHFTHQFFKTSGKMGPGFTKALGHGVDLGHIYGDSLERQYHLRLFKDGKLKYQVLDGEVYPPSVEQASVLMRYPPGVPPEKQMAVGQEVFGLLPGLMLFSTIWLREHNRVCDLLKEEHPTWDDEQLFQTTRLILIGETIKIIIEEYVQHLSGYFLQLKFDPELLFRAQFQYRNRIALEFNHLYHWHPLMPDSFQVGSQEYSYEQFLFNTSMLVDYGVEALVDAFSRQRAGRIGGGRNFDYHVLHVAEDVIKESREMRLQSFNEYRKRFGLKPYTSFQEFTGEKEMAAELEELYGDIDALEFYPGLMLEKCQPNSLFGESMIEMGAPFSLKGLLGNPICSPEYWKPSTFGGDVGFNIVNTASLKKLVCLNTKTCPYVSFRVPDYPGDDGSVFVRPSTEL
Description: ARBC Whole Cell Cyclooxygenase Assay in RBL-1 cells (PGF2α RIA). It is filed as cell-based. The conditions noted are these: RBL-1 intact cell cyclooxygenase; A23187 5 μM. How it is done:
as §1, §2, §3, §4, §5

Regarding `COc1cc(C=Cc2cc(C=Cc3ccc(O)c(OC)c3)[nH]n2)ccc1O` [Example 1, 3,5-Bis[β-(4'-hydroxy-3'-methoxyphenyl)ethenyl]pyrazole], the figures for the IC50 in test [1], in test [2] and in test [3] were 1.6 µM, 66 µM and 2.5 µM, respectively.
In the same order, the values of `COc1cc(C=Cc2cc(C)n[nH]2)ccc1O` [Example 5, 3-[β-(4'-Hydroxy-3'-methoxyphenyl)ethenyl]-5-methylpyrazole] are 0.8 µM, 33 µM and 13 µM.
In the same order, the values of `Cc1cc(C=Cc2ccc(O)c(Cl)c2)n[nH]1` [Example 7, 3-[β-(4'-Hydroxy-3'-chlorophenyl)ethenyl]-5-methylpyrazole] are 9.5 µM, 34 µM and 6.8 µM.
